pIC50: −log10 of the molar value.
These molecules were tested against T1, Full-length, GST-tagged, human CaMKIIδ (Homo sapiens, UniProt Q13557) (assay: CaMKIIδ binding assay (TR-FRET with BODIPY-labeled probe ligand)). Conditions: CaMKIIδ binding assay, results of Table 2.
T1 construct: Full-Length, Glutathione-S-Transferase(GST)-Tagged, Human CaMKIIδ was purchased from Carna Biosciences; purchased Carna Biosciences 02-111
T1 sequence (Q13557 1-478 isoform Q13557-12): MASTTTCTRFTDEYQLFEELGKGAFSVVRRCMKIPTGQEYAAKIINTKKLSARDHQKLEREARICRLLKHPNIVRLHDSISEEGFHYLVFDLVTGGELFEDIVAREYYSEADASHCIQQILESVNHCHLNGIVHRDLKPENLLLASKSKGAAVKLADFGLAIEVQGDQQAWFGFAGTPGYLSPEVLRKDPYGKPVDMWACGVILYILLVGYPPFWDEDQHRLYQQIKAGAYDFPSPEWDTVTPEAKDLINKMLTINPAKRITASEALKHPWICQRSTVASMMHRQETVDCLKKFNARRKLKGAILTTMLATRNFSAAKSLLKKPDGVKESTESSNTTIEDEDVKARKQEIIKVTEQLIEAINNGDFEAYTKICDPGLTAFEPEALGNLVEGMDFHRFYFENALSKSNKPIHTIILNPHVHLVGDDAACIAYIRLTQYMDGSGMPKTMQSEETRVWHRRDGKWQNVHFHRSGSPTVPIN
In short: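 TR-FRET probe-displacement binding: 0.5 nM GST-CaMKIIδ with 10 μg/mL calmodulin, 1 mM CaCl2, 0.21 nM Tb-anti-GST Ab and 300 nM BODIPY probe in HEPES pH 7.6 buffer. Eight-point 4-fold dilutions, 1 hr at room temperature. IC50 from logistic fit; 100% inhibition defined by 3 μM parent compound.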
In the case of `C[C@@H](Cn1cnnn1)Oc1cc(-c2cnc(Nc3cn(C4CCN(CC(F)(F)F)CC4)nc3C(F)(F)F)nc2)ccc1Cl` [Example 486, (S)-5-(3-((1-(1H-tetrazol-1-yl)propan-2-yl)oxy)-4-chlorophenyl)-N-(1-(1-(2,2,2-trifluoroethyl)piperidin-4-yl)-3-(trifluoromethyl)-1H-pyrazol-4-yl)pyrimidin-2-amine], the pIC50 was 7.00 to 8.00.
`C[C@@H](Cn1cnnn1)Oc1cc(-c2cnc(Nc3cn(C4CCN(C5CCOC5)CC4)nc3C(F)(F)F)nc2)ccc1Cl` (stereo partly drawn) [Example 552, 5-(3-(((S)-1-(1H-tetrazol-1-yl)propan-2-yl)oxy)-4-chlorophenyl)-N-(1-(1-(tetrahydrofuran-3-yl)piperidin-4-yl)-3-(trifluoromethyl)-1H-pyrazol-4-yl)pyrimidin-2-amine] showed a pIC50 of over 8.00.
`COc1cc2c(cc1Nc1ncc(-c3ccc(Cl)c(O[C@@H](C)Cn4cnnn4)c3)cn1)CCN(C1CCOCC1)C2` [Example 474, (S)-N-(5-(3-((1-(1H-tetrazol-1-yl)propan-2-yl)oxy)-4-chlorophenyl)pyrimidin-2-yl)-7-methoxy-2-(tetrahydro-2H-pyran-4-yl)-1,2,3,4-tetrahydroisoquinolin-6-amine] gave a pIC50 of over 8.00.
For `C[C@@H](Cn1cnnn1)Oc1cc(-c2cnc(Nc3cc(C4CCN(C5COC5)CC4)c(F)cc3F)nc2)ccc1Cl` [Example 578, (S)-5-(3-((1-(1H-tetrazol-1-yl)propan-2-yl)oxy)-4-chlorophenyl)-N-(2,4-difluoro-5-(1-(oxetan-3-yl)piperidin-4-yl)phenyl)pyrimidin-2-amine], the pIC50 was 7.00 to 8.00.
With `C[C@@H](Cn1cnnn1)Oc1cc(-c2cnc(Nc3cn(C4CCN(Cc5ccsc5)CC4)nc3C(F)(F)F)nc2)ccc1Cl` [Example 560, (S)-5-(3-((1-(1H-tetrazol-1-yl)propan-2-yl)oxy)-4-chlorophenyl)-N-(1-(1-(thiophen-3-ylmethyl)piperidin-4-yl)-3-(trifluoromethyl)-1H-pyrazol-4-yl)pyrimidin-2-amine] the pIC50 was over 8.00.

Same assay, conditions: CaMKIIδ binding assay; activity class per Table 2
For `CO[C@H]1CC[C@@H](N2CC3(CC(n4cc(Nc5ncc(-c6ccc(Cl)c(O[C@@H](C)Cn7cnnn7)c6)cn5)c(C(C)C)n4)C3)C2)CC1` [Example 1011, 5-(3-(((S)-1-(1H-tetrazol-1-yl)propan-2-yl)oxy)-4-chlorophenyl)-N-(3-isopropyl-1-(2-(cis-4-methoxycyclohexyl)-2-azaspiro[3.3]heptan-6-yl)-1H-pyrazol-4-yl)pyrimidin-2-amine], the pIC50 was over 8.00.

Same assay, conditions: Table 2; CaMKIIδ binding assay, activity given as class A/B/C
In the case of `C[C@@H](Cn1cnnn1)Oc1cc(-c2cnc(Nc3cn([C@@H](C)C(=O)N4CCOCC4)nc3C(F)(F)F)nc2)ccc1Cl` [Example 761, (S)-2-(4-((5-(3-(((S)-1-(1H-tetrazol-1-yl)propan-2-yl)oxy)-4-chlorophenyl)pyrimidin-2-yl)amino)-3-(trifluoromethyl)-1H-pyrazol-1-yl)-1-morpholinopropan-1-one], the pIC50 was 7.00 to 8.00.
For `C[C@@H](Cn1cnnn1)Oc1cc(-c2cnc(Nc3cn(C4CCC(CC(N)=O)CC4)nc3C(F)(F)F)nc2)ccc1Cl` (stereo partly drawn) [Example 852, (S)-2-(4-(4-((5-(3-((1-(1H-tetrazol-1-yl)propan-2-yl)oxy)-4-chlorophenyl)pyrimidin-2-yl)amino)-3-(trifluoromethyl)-1H-pyrazol-1-yl)cyclohexyl)acetamide], the pIC50 was at most 7.00.
Work on `C[C@@H](Cn1cnnn1)Oc1cc(-c2cnc(Nc3sc4c(c3C#N)CCC4)nc2)ccc1Cl` [Example 753, (S)-2-((5-(3-((1-(1H-tetrazol-1-yl)propan-2-yl)oxy)-4-chlorophenyl)pyrimidin-2-yl)amino)-5,6-dihydro-4H-cyclopenta[b]thiophene-3-carbonitrile] yielded a pIC50 of at most 7.00.
For `C[C@@H](Cn1cnnn1)Oc1cc(-c2cnc(Nc3cn(C4CCC(CC(=O)O)CC4)nc3C(F)(F)F)nc2)ccc1Cl` (stereo partly drawn) [Example 851, (S)-2-(4-(4-((5-(3-((1-(1H-tetrazol-1-yl)propan-2-yl)oxy)-4-chlorophenyl)pyrimidin-2-yl)amino)-3-(trifluoromethyl)-1H-pyrazol-1-yl)cyclohexyl)acetic acid], the pIC50 was at most 7.00.

Same assay, conditions: Table 2; activity class for CaMKIIδ
In the case of `COc1ccc(C(=O)N2CCCNCC2)cc1Nc1ncc(-c2ccc(Cl)c(O[C@@H](C)Cn3cnnn3)c2)cn1` [Example 593, (S)-(3-((5-(3-((1-(1H-tetrazol-1-yl)propan-2-yl)oxy)-4-chlorophenyl)pyrimidin-2-yl)amino)-4-methoxyphenyl) (1,4-diazepan-1-yl)methanone], the pIC50 was over 8.00.
`C[C@@H](Cn1cnnn1)Oc1cc(-c2cnc(Nc3cn(C4CCNC4)nc3C(F)(F)F)nc2)ccc1Cl` (stereo partly drawn) [Example 618, 5-(3-(((S)-1-(1H-tetrazol-1-yl)propan-2-yl)oxy)-4-chlorophenyl)-N-(1-(pyrrolidin-3-yl)-3-(trifluoromethyl)-1H-pyrazol-4-yl)pyrimidin-2-amine] showed a pIC50 of over 8.00.
With `C[C@@H](Cn1cnnn1)Oc1cc(-c2cnc(Nc3cn(CC4CN(C5COC5)C4)nc3C(F)(F)F)nc2)ccc1Cl` [Example 598, (S)-5-(3-((1-(1H-tetrazol-1-yl)propan-2-yl)oxy)-4-chlorophenyl)-N-(1-((1-(oxetan-3-yl)azetidin-3-yl)methyl)-3-(trifluoromethyl)-1H-pyrazol-4-yl)pyrimidin-2-amine] the pIC50 was over 8.00.
Molecule `C[C@@H](Cn1cnnn1)Oc1cc(-c2cnc(Nc3cn(CC(=O)N4CCOCC4)nc3C(F)(F)F)nc2)ccc1Cl` [Example 607, (S)-2-(4-((5-(3-((1-(1H-tetrazol-1-yl)propan-2-yl)oxy)-4-chlorophenyl)pyrimidin-2-yl)amino)-3-(trifluoromethyl)-1H-pyrazol-1-yl)-1-morpholinoethan-1-one] has a pIC50 of over 8.00.
With `C[C@@H](Cn1cnnn1)Oc1cc(-c2cnc(Nc3cn([C@@H]4CCCC[C@H]4O)nc3C(F)(F)F)nc2)ccc1Cl` (mixture of isomers) [Example 704, trans-2-(4-((5-(3-(((S)-1-(1H-tetrazol-1-yl)propan-2-yl)oxy)-4-chlorophenyl)pyrimidin-2-yl)amino)-3-(trifluoromethyl)-1H-pyrazol-1-yl)cyclohexan-1-ol] the pIC50 was over 8.00.
`CC(C(N)=O)n1cc(Nc2ncc(-c3ccc(Cl)c(O[C@@H](C)Cn4cnnn4)c3)cn2)c(C(F)(F)F)n1` (stereo partly drawn) [Example 713, 2-(4-((5-(3-(((S)-1-(1H-tetrazol-1-yl)propan-2-yl)oxy)-4-chlorophenyl)pyrimidin-2-yl)amino)-3-(trifluoromethyl)-1H-pyrazol-1-yl)propanamide] showed a pIC50 of over 8.00.
For `CCC(C)n1cc(Nc2ncc(-c3ccc(Cl)c(O[C@@H](C)Cn4cnnn4)c3)cn2)c(C(F)(F)F)n1` (stereo partly drawn) [Example 608, 5-(3-(((S)-1-(1H-tetrazol-1-yl)propan-2-yl)oxy)-4-chlorophenyl)-N-(1-(sec-butyl)-3-(trifluoromethyl)-1H-pyrazol-4-yl)pyrimidin-2-amine], the pIC50 was 7.00 to 8.00.
`CCn1cc(Nc2ncc(-c3ccc(Cl)c(O[C@@H](C)Cn4cnnn4)c3)cn2)c(N2CCCC2)n1` [Example 669, (S)-5-(3-((1-(1H-tetrazol-1-yl)propan-2-yl)oxy)-4-chlorophenyl)-N-(1-ethyl-3-(pyrrolidin-1-yl)-1H-pyrazol-4-yl)pyrimidin-2-amine] gave a pIC50 of 7.00 to 8.00.
Molecule `COc1nn(C2CCNCC2)cc1Nc1ncc(-c2ccc(Cl)c(O[C@@H](C)Cn3cnnn3)c2)cn1` [Example 657, (S)-5-(3-((1-(1H-tetrazol-1-yl)propan-2-yl)oxy)-4-chlorophenyl)-N-(3-methoxy-1-(piperidin-4-yl)-1H-pyrazol-4-yl)pyrimidin-2-amine] has a pIC50 of over 8.00.

— patent US10543212B2, “Substituted amines for treating cardiac diseases” (Cardurion Pharmaceuticals, LLC, priority 2017, dated 2020)
